Test results as given in patent US8673880B2, “Prevention and/or treatment of neurodegenerative disorders” (The University Of Liverpool, priority 2006, dated 2014).

What follows are compounds tested against T1, recombinant human BACE-1 (Homo sapiens, UniProt P56817) (assay: BACE-1 inhibition by in vitro FRET peptide cleavage assay). Details: Example 2.
T1 construct: purchased Sigma
Type: biochemical
Experimental: In vitro cleavage of APP by BACE-1 was measured using a FRET peptide cleavage assay.
The ability of the compounds to inhibit BACE-1 cleavage of APP was assessed using a fluorescent resonance energy transfer (FRET) peptide cleavage assay employing the FRET peptide 5-FAM-Glu-Val-Asn-Leu-Asp-Ala-Phe-Lys(QXL520)-OH, containing the Swedish amino acid variant (Anaspec, Inc., CA, USA). When intact, the amino terminal fluorophore is quenched, but upon enzymatic cleavage the fluorophore is released from quencher and fluoresces (520 nm). Assays were performed in triplicate in 96 well black plates (20 mM sodium acetate, 0.1% Triton-X-100, pH 4.5; 2.5 μM peptide per well and 4.0×10^−3 units/well of recombinant human BACE-1 (Sigma)). The appropriate controls for enzyme activity and background fluorescence were employed and plates were incubated (1 h, 25° C., stopped with 2.5 M sodium acetate) Inhibitors were added in a concentration range from 1000-0.0001 μg/ml. Fluorescence 480ex/520em was measured on a Polarstar plate reader (BMG LabTechnologies, UK) and data were analysed by plotting log10 concentration of inhibitor against percent inhibition and fitting a four parameter sigmoidal curve using BioDataFit 1.02 (Chang Bioscience, USA).

T1 sequence (P56817 46-501): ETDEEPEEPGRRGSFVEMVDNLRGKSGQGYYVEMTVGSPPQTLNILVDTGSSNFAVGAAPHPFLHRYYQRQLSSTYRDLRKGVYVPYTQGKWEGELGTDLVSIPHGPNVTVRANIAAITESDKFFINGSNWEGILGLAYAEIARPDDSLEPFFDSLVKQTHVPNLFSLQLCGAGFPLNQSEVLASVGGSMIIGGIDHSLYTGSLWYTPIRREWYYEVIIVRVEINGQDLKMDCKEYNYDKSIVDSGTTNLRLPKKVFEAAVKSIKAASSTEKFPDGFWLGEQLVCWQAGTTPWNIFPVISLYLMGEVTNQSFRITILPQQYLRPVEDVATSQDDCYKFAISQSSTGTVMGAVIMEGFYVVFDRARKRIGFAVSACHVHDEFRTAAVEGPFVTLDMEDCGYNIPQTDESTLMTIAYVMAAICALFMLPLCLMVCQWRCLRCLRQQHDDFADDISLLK

Compound	EC50 fold lower than unmodified PMH
Ido 2-de-O-sulphated, N-acetylated heparin [Compound 4]	approximately 3 fold

Same assay, conditions: Example 2, Table 2

Compound	EC50 (BACE inhibition) [mg/L]
porcine intestinal mucosal heparin [Compound 1, reference compound]	0.027
Ido 2-de-O-sulphated, N-acetylated heparin [Compound 4]	0.089

Same assay, conditions: FRET peptide cleavage, Table 1

Compound	IC50 (BACE-1)
Per-sulphated heparin [Compound 9]	0.053 μg/ml
6-O-desulphated, 2-O-desulphated, N-acetylated heparin [Compound 8]	>100 μg/ml
N-acetyl heparin [Compound 2]	0.031 μg/ml
6-O-desulphated, 2-O-desulphated heparin [Compound 7]	0.786 μg/ml
porcine intestinal mucosal heparin [Compound 1, reference compound]	0.028 μg/ml
Ido 2-de-O-sulphated, N-acetylated heparin [Compound 4]	0.091 μg/ml
Ido 2-de-O-sulphated heparin [Compound 3]	0.053 μg/ml
6-O-desulphated, N-acetylated heparin [Compound 6]	0.410 μg/ml
NCCCS(=O)(=O)O [Compound 10, 3-amino-1-propanesulfonic acid, reference compound]	No
6-O-desulphated heparin [Compound 5]	0.100 μg/ml

Same assay, conditions: Table 1

Compound	BACE-1 inhibitory activity in words
6-O-desulphated, 2-O-desulphated, N-acetylated heparin [Compound 8]	almost abolished

Same assay, conditions: calculated from IC50 against BACE-1/anticoagulant activity

Compound	Therapeutic ratio (BACE/Xa)
Per-sulphated heparin [Compound 9]	2
6-O-desulphated, 2-O-desulphated, N-acetylated heparin [Compound 8]	1
N-acetyl heparin [Compound 2]	3136
6-O-desulphated, 2-O-desulphated heparin [Compound 7]	123
porcine intestinal mucosal heparin [Compound 1, reference compound]	1
Ido 2-de-O-sulphated, N-acetylated heparin [Compound 4]	1092
Ido 2-de-O-sulphated heparin [Compound 3]	147
6-O-desulphated, N-acetylated heparin [Compound 6]	237
6-O-desulphated heparin [Compound 5]	61

Same assay, conditions: even at high concentrations (1000 μg/ml)

Compound	inhibition of BACE-1
NCCCS(=O)(=O)O [Compound 10, 3-amino-1-propanesulfonic acid, reference compound]	did not inhibit BACE-1

Each compound was assayed on Factor Xa (assay: Anti Factor Xa (anticoagulant) activity, Coatest Heparin test kit). Details: Example 1.
Type: biochemical
Experimental: Anti Factor Xa activity was measured against a porcine mucosal heparin (PIMH) standard of known activity (Sigma, UK) using a diagnostic grade Coatest Heparin test kit (Chromogenix, MA, USA), adapted to a 96 well plate format, reading A405 (Polarstar plate reader (BMG LabTechnologies, UK)).

Compound	anti factor Xa activity, fold lower than PIMH
Ido 2-de-O-sulphated, N-acetylated heparin [Compound 4]	at least 3000 fold

Same assay, conditions: Example 2, Table 2; standard heparin = 100

Compound	Anticoagulant activity (%)
porcine intestinal mucosal heparin [Compound 1, reference compound]	100
Ido 2-de-O-sulphated, N-acetylated heparin [Compound 4]	<0.03

Same assay, conditions: anti-factor Xa, percentage of PIMH (defined as 100%)

Compound	Anti-coagulant activity [%]
Per-sulphated heparin [Compound 9]	35.0
6-O-desulphated, 2-O-desulphated, N-acetylated heparin [Compound 8]	0.03
N-acetyl heparin [Compound 2]	0.03
6-O-desulphated, 2-O-desulphated heparin [Compound 7]	0.03
porcine intestinal mucosal heparin [Compound 1, reference compound]	100
Ido 2-de-O-sulphated, N-acetylated heparin [Compound 4]	0.03
Ido 2-de-O-sulphated heparin [Compound 3]	0.4
6-O-desulphated, N-acetylated heparin [Compound 6]	0.03
6-O-desulphated heparin [Compound 5]	0.5

What follows are compounds tested against T2, pepsin (Sus scrofa, UniProt P00791) (assay: Pepsin FRET cleavage assay). Details: not given.
T2 construct: purchased Sigma, UK
T2 sequence (P00791 60-385): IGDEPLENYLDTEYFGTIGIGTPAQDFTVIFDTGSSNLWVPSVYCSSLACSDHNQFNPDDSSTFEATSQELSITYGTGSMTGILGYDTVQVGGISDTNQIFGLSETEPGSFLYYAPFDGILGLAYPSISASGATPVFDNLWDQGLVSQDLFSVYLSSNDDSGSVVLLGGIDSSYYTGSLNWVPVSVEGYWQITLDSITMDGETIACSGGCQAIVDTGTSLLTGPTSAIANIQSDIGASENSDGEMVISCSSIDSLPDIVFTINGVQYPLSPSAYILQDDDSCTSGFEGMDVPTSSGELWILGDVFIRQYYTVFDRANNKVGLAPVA
Type: biochemical
Experimental: (§1) The ability of compounds to inhibit the structurally related proteases pepsin and cathepsin D (Sigma, UK) was measured by FRET cleavage assay (5 pmol enzyme/well, EnzChek Protease Assay kit (Molecular Probes, UK) according to manufacturer's instructions). Activity against human recombinant renin (Cayman Chemical, MI, USA), was measured by FRET peptide cleavage assay (0.08 pMoles enzyme/well, using the Renin Substrate 1 (Molecular Probes, Invitrogen, UK) according to manufacturer's instructions. IC50 values were calculated as described above.

Compound	IC50 against pepsin [mg/L]
N-acetyl heparin [Compound 2]	3.27
porcine intestinal mucosal heparin [Compound 1, reference compound]	0.23
Ido 2-de-O-sulphated, N-acetylated heparin [Compound 4]	> 1000

Same assay, conditions: compared with compound 1

Compound	fold less potent than PIMH against pepsin [fold]
N-acetyl heparin [Compound 2]	14

Each compound was assayed against T3, cathepsin D (Homo sapiens, UniProt P07339) (assay: Cathepsin D FRET cleavage assay). Details: not given.
T3 construct: purchased Sigma, UK
T3 sequence (P07339 65-412, species assumed): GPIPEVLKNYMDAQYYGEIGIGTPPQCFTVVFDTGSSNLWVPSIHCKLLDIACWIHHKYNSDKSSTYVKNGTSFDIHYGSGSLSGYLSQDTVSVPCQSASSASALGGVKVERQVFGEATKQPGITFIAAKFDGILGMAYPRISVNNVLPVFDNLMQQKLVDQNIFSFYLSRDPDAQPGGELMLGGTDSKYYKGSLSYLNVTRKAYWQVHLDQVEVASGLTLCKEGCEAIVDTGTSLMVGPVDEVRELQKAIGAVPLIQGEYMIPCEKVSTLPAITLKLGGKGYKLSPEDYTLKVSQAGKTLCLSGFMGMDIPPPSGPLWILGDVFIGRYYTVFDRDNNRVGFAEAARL
Type: biochemical
Experimental: as §1

Compound	IC50 against cathepsin D [mg/L]
N-acetyl heparin [Compound 2]	0.27
porcine intestinal mucosal heparin [Compound 1, reference compound]	0.1
Ido 2-de-O-sulphated heparin [Compound 3]	0.77

These compounds were tested against T4, human recombinant renin (Homo sapiens, UniProt P00797) (assay: Renin FRET peptide cleavage assay). Details: concentrations up to 1000 μg/ml.
T4 construct: purchased Cayman Chemical
T4 sequence (P00797 67-406): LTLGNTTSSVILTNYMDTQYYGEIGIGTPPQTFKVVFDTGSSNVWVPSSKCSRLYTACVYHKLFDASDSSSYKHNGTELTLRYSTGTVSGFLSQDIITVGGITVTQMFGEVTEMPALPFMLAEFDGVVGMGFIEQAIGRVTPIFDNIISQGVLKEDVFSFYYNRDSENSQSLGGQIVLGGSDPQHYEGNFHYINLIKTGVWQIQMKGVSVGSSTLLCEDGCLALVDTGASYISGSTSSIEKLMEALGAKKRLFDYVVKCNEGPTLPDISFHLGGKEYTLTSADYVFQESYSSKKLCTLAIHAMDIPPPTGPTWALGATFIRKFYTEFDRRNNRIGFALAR
Type: biochemical
Experimental: as §1

Compound	inhibitory effect on renin
N-acetyl heparin [Compound 2]	None of the compounds exerted an inhibitory effect on renin
porcine intestinal mucosal heparin [Compound 1, reference compound]	None of the compounds exerted an inhibitory effect on renin
Ido 2-de-O-sulphated, N-acetylated heparin [Compound 4]	None of the compounds exerted an inhibitory effect on renin
Ido 2-de-O-sulphated heparin [Compound 3]	None of the compounds exerted an inhibitory effect on renin

What follows are compounds tested against T5, Aβ peptide (Amyloid β Protein Fragment 1-42) (Homo sapiens, UniProt P05067) (assay: Aβ aggregation assay (Thioflavin T)). Details: FIG. 2.
T5 construct: Amyloid β Protein Fragment 1-42; Sigma A9810; purchased Sigma A9810
T5 sequence (P05067 672-713): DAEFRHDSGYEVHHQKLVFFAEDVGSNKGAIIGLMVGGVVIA
Type: biochemical
Experimental: The Aβ peptide was prepared by addition of 1 ml of hexafluoro-2-propanol to 1 mg Aβ peptide (Amyloid β Protein Fragment 1-42; Sigma A9810) and disaggregation at room temperature for 1 hour. The resulting material was divided into 50 μl (50 μg) aliquots and dried in Speed Vac for approximately 2 hours, followed by storage at −20° C. The Thioflavin T (Sigma T-3516) solution was prepared as a 5 mM solution in 50 mM Glycine-NaOH pH 8.5, and stored in the dark at 4° C. Thioflavin T assay buffer comprising 20 μl Thioflavin T solution with 50 μl 1M DTT and […] assay Buffer (10 mM HEPES/100 mM NaCl pH 7.4) was kept on ice. 50 μl of 20 mM NaOH was added to 50 μg of Aβ peptide. 2.5 ml of Thioflavin T assay buffer was then added to this Aβ peptide solution, making “Aβ buffer”. The remaining 2.5 ml of Thioflavin T assay buffer was the blank buffer, and both were kept on ice. Six replicates of sample dilutions (1:1 in assay buffer) were pipetted into a 96 well black plate (Greiner 655076; 100 μl/well) and the plate was kept on ice. 100 μl/well of Aβ buffer was added to the samples (in triplicate), and 100 μl/well of the blank buffer added to a further three sample replicates. The 96 well plate was read (450 nm excitation wavelength and 490 nm emission wavelength), taking a reading every 150 seconds for 250 cycles one plate reader set at 37° C.

Compound	enhancement of Aβ aggregation
porcine intestinal mucosal heparin [Compound 1, reference compound]	maximum enhancement

Same assay, conditions: FIG. 2; compared to intact heparin

Compound	rate of A-β aggregation, % slower [%]
N-acetyl heparin [Compound 2]	50
Ido 2-de-O-sulphated, N-acetylated heparin [Compound 4]	100

Same assay, conditions: concentration of 100 μg/ml; compared to parental PMH

Compound	increase in the time taken to reach half-maximal peptide aggregation [%]
N-acetyl heparin [Compound 2]	50
Ido 2-de-O-sulphated, N-acetylated heparin [Compound 4]	100
Ido 2-de-O-sulphated heparin [Compound 3]	50
